# Patent US6683084B1, “Use of 2-amino purine derivatives for the treatment and prophylaxis of human herpes virus 6 infections” (Novartis International Pharmaceutical Ltd., priority 1993, dated 2004)
# System: HHV-6 strain 7.29
# Assay: Evaluation of PCV against HHV-6 in human cord blood cells (% infected cells by immunofluorescence)
# Format: cell-based, human herpesvirus 6
# Experimental: An assay method involving the inhibition of a cytopathic effect in human cord blood cells is conducted at a dose range of 0.01 μM-100 μM. The general procedure is as described in Chapter 23 of ‘Human Herpesvirus; Epidemiology, Molecular Biology and Clinical Pathology—Conference Proceedings, Ablashi D. V. (Ed).
# ^aDilutions of the compounds were added 1 hr after viral inoculation of human cord blood. The % infected cells was measured by anti-complement immunofluorescence (ACIF). All numbers are averages of results of cord blood from 3 donors and triplicate readings were performed on each sample. Each reading represents actual counting of 3 fields.
# Human mononuclear cells were isolated from umbilical cord blood and inoculated in triplicate with the test virus. One hour later, duplicate dilutions of the compound were added, resulting in 0, 5, 10, 50, or 100 μM final concentrations. After 3-6 days, cellls were removed and tested for the presence of virus by indirect immunofluorescence (IFA) using type specific monoclonal antibodies. Three fields of 100 cells each were read from each sample.
compound,measurement,setting,value
"Nc1nc2c(ncn2CCC(CO)CO)c(=O)[nH]1 [PCV, penciclovir]",inhibition at 5 µM,"Human betaherpesvirus 6, 144 h, PCV 5 μM, Day 6, read-out: % Inhib Day 6",-5%
same,inhibition at 10 µM,"Human betaherpesvirus 6, 144 h, PCV 10 μM, Day 6, read-out: % Inhib Day 6",-7%
same,inhibition at 50 µM,"Human betaherpesvirus 6, 144 h, PCV 50 μM, Day 6, read-out: % Inhib Day 6",12%
same,inhibition at 100 µM,"Human betaherpesvirus 6, 144 h, PCV 100 μM, Day 6, read-out: % Inhib Day 6",29%
same,% Inf Day 4,"PCV 5 μM, Day 4, compound added 1 hr after viral inoculation",19%
same,% Inf Day 6,PCV 5 μM,42%
same,% Inf Day 4,"PCV 10 μM, Day 4",20%
same,% Inf Day 6,PCV 10 μM,43%
same,% Inf Day 6,PCV 50 μM,35%
same,% Inf Day 6,PCV 100 μM,38%
